For one assay, the target named is α-glucosidase (E.C.3.2.1.20) (Saccharomyces cerevisiae, UniProt P53341). Briefly: α-glucosidase inhibition assay. The class given is biochemical. Particulars: IC50 could not be determined.
α-glucosidase (E.C.3.2.1.20), sequence (P53341 whole entry): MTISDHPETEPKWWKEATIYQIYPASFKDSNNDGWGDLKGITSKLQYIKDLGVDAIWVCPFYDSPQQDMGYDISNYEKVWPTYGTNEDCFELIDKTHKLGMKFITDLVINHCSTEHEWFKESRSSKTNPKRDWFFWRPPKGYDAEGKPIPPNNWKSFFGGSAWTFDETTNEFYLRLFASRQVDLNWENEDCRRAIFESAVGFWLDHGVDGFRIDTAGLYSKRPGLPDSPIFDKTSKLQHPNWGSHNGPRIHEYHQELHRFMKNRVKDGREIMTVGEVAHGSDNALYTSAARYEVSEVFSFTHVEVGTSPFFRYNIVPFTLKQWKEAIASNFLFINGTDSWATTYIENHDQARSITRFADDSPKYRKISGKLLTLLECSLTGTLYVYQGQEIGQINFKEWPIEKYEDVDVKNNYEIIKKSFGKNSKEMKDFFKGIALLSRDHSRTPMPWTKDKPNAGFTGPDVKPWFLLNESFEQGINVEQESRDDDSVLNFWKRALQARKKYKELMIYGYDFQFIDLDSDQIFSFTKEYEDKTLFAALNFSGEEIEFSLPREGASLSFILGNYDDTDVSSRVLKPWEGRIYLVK
Turning to `O=C(NN=C1C(=O)N(CCOc2ccc(F)cc2)c2ccccc21)c1cccnc1` [1j, N′-(1-(2-(4-Fluorophenoxy)ethyl)-2-oxoindolin-3-ylidene)nicotinohydrazide], the “α-glucosidase inhibitory activity (in words)” value is “complete loss of inhibitory activity”.
On the same count and under the same terms, for `O=C(NN=C1C(=O)N(CCOc2ccc(F)cc2)c2ccccc21)c1ccncc1` [1k, N′-(1-(2-(4-Fluorophenoxy)ethyl)-2-oxoindolin-3-ylidene)isonicotinohydrazide] the value was “loss of inhibitory activity”.

The same assay, now with this note: read-out: Percent inhibition (0.5 mM).
For `O=C(NN=C1C(=O)N(CCOc2ccccc2)c2ccccc21)c1cccnc1` [1a, N′-(2-Oxo-1-(2-phenoxyethyl)indolin-3-ylidene)nicotinohydrazide], the inhibition at 500 µM was 75.6%.
Consider `O=C(NN=C1C(=O)N(CCOc2ccccc2)c2ccccc21)c1ccncc1` [1b, N′-(2-Oxo-1-(2-phenoxyethyl)indolin-3-ylidene)isonicotinohydrazide], for which the inhibition at 500 µM is 94.1%.
Take `O=C(NN=C1C(=O)N(CCOc2ccccc2)c2ccccc21)c1ccc(Br)cc1` [1c, 4-Bromo-N′-(2-oxo-1-(2-phenoxyethyl)indolin-3-ylidene)benzohydrazide]: the inhibition at 500 µM is 90.6%.
As to `O=C(NN=C1C(=O)N(CCOc2ccc(Cl)cc2)c2ccccc21)c1cccnc1` [1d, N′-(1-(2-(4-Chlorophenoxy)ethyl)-2-oxoindolin-3-ylidene)nicotinohydrazide], the inhibition at 500 µM was 92.9%.
Regarding `O=C(NN=C1C(=O)N(CCOc2ccc(Cl)cc2)c2ccccc21)c1ccncc1` [1e, N′-(1-(2-(4-Chlorophenoxy)ethyl)-2-oxoindolin-3ylidene)isonicotinohydrazide], the inhibition at 500 µM is 94.7%.
Same read-out and setting: for `O=C(NN=C1C(=O)N(CCOc2ccc(Cl)cc2)c2ccccc21)c1ccc(Br)cc1` [1f, 4-Bromo-N′-(1-(2-(4-chlorophenoxy)ethyl)-2-oxoindolin3ylidene)benzohydrazide] the value was 94.5%; for `O=C(NN=C1C(=O)N(CCOc2ccc(Br)cc2)c2ccccc21)c1cccnc1` [1g, N′-(1-(2-(4-Bromophenoxy)ethyl)-2-oxoindolin-3-ylidene)nicotinohydrazide], 92.1%.
The same measure, in the same setting: as for `O=C(NN=C1C(=O)N(CCOc2ccc(Br)cc2)c2ccccc21)c1ccncc1` [1h, N′-(1-(2-(4-Bromophenoxy)ethyl)-2-oxoindolin-3-ylidene)isonicotinohydrazide], the figure is 89.9%; as for `O=C(NN=C1C(=O)N(CCOc2ccc(Br)cc2)c2ccccc21)c1ccc(Br)cc1` [1i, 4-Bromo-N′-(1-(2-(4-bromophenoxy)ethyl)-2-oxoindolin-3-ylidene)benzohydrazide], 94.9%; as for `O=C(NN=C1C(=O)N(CCOc2ccc(F)cc2)c2ccccc21)c1cccnc1` [1j, N′-(1-(2-(4-Fluorophenoxy)ethyl)-2-oxoindolin-3-ylidene)nicotinohydrazide], 36%.
Regarding `O=C(NN=C1C(=O)N(CCOc2ccc(F)cc2)c2ccccc21)c1ccncc1` [1k, N′-(1-(2-(4-Fluorophenoxy)ethyl)-2-oxoindolin-3-ylidene)isonicotinohydrazide], the inhibition at 500 µM is 39.3%.
With `O=C(NN=C1C(=O)N(CCOc2ccc(F)cc2)c2ccccc21)c1ccc(Br)cc1` [1l, 4-Bromo-N′-(1-(2-(4-fluorophenoxy)ethyl)-2-oxoindolin-3-ylidene)benzohydrazide], the inhibition at 500 µM is 93.1%.

As usually defined, the inhibition is how much of the control response was suppressed.

(Values after publication PMC12056728 (RSC Advances, 2025).)
